Values quoted from earlier work as cited in patent US6743821B2, “Glycerol-lactate esters for use as an energy supplement during exercise and recovery” (priority 2001, dated 2004).

Tests used:
[1] = blood of Wistar rats
isolated working hearts = settings: concentrated sodium lactate added to hearts from shocked animals

Question: With `[13CH3]C(=O)C(=O)O` [[3-^13C]pyruvate] as the compound, how does the “conversion of the infused tracer in the blood” value [1] read?
Answer: quickly converted to [3-^13C]lactate

Question: Which “performance of isolated working hearts” value (isolated working hearts) does the source give for `CC(O)C(=O)[O-].[Na+]` (centres unmarked) [sodium lactate] here?
Answer: significantly enhanced
